Test results as given in ChEMBL document CHEMBL1201862, “PubChem BioAssay data set” (2004).
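The compound was tested at five concentrations on cells cultured in 96-well plates, with a 48-hour exposure period. Here, GI50 denotes the concentration required for 50% inhibition of growth.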 Calls of active or inactive are those of the source. No stated cut-off is given here; in the data, active = GI50 up to about 1.1 µM and inactive = higher.

What was measured:
Assay in all cases: growth of human tumour cells (NCI), 48 h
786-0 = tested on: 786-0
DU-145 = tested on: DU-145
HCT-116 = tested on: HCT-116
HCT-15 = tested on: HCT-15
HOP-62 = tested on: HOP-62
MCF7 = tested on: MCF7
MDA-MB-231 = tested on: MDA-MB-231
Malme-3M = tested on: Malme-3M
NCI-H23 = tested on: NCI-H23
RPMI-8226 = tested on: RPMI-8226
RXF 393 = tested on: RXF 393
SF-268 = tested on: SF-268
SF-295 = tested on: SF-295
SK-OV-3 = tested on: SK-OV-3
SNB-19 = tested on: SNB-19
SW-620 = tested on: SW-620
EKVX = tested on: EKVX
HL-60 = tested on: HL-60
MDA-MB-435 = tested on: MDA-MB-435
NCI-H226 = tested on: NCI-H226

SMILES | GI50 (786-0) | GI50 (DU-145) | GI50 (HCT-116) | GI50 (HCT-15) [µM] | GI50 (HOP-62) | GI50 (MCF7) | GI50 (MDA-MB-231) | GI50 (Malme-3M) | GI50 (NCI-H23) | GI50 (RPMI-8226) | GI50 (RXF 393) | GI50 (SF-268) | GI50 (SF-295) | GI50 (SK-OV-3) | GI50 (SNB-19) | GI50 (SW-620) | GI50 (EKVX) | GI50 (HL-60) | GI50 (MDA-MB-435) | GI50 (NCI-H226)
Cc1cc2c(c(=O)o1)C1=S(SC(c3ccccc3)=C1)S2 (stereo unspecified) | 15 µM (inactive) | 36.3 µM (inactive) | 22.8 µM (inactive) | > 100 | 20.8 µM (inactive) | 29.6 µM (inactive) | 57.4 µM (inactive) | 30.1 µM (inactive) | 78.9 µM (inactive) | 55.6 µM (inactive) | 20.2 µM (inactive) | 45.7 µM (inactive) | 27.3 µM (inactive) | 23.8 µM (inactive) | 28.2 µM (inactive) | > 100 µM (inactive) |  |  |  | 
COC(=O)C12OCC34C(CC5C(C)=CC(=O)C(O)C5(C)C3C(O)C1O)OC(=O)C(OC(=O)CC(C)C)C24 (stereo unspecified) | 0.0468 µM (active) | 0.00083 µM (active) |  | 0.00288 | 0.00222 µM (active) |  | 0.00369 µM (active) | 0.00126 µM (active) | 0.000778 µM (active) | 0.000371 µM (active) | 0.00168 µM (active) | 0.00217 µM (active) | 0.00158 µM (active) | 0.0031 µM (active) | 0.0014 µM (active) | 0.002 µM (active) | 0.00313 µM (active) | 0.000208 µM (active) | 0.00103 µM (active) | 0.00109 µM (active)
COC(=O)Cc1c([C@H]2[C@H](CC(=O)OC)c3ccccc3N2C(C)=O)[nH]c2ccccc12 | > 100 µM (inactive) | > 100 µM (inactive) | > 100 µM (inactive) | 64.3 | > 100 µM (inactive) |  | > 100 µM (inactive) | > 100 µM (inactive) | 50.9 µM (inactive) | 33.6 µM (inactive) | > 100 µM (inactive) | > 100 µM (inactive) | 72.8 µM (inactive) | > 100 µM (inactive) | > 100 µM (inactive) | > 100 µM (inactive) | > 100 µM (inactive) | 85.3 µM (inactive) | > 100 µM (inactive) | > 100 µM (inactive)
CC(C)(C)C(=O)CC(=O)C(F)(F)C(F)(F)C(F)(F)F | 17 µM (inactive) | 36.1 µM (inactive) | 18.3 µM (inactive) | 14.3 | 18.3 µM (inactive) |  | 15.5 µM (inactive) | 22.1 µM (inactive) | 12.6 µM (inactive) | 11.1 µM (inactive) | 17.3 µM (inactive) | 17 µM (inactive) | 17.5 µM (inactive) | 20.9 µM (inactive) | 20 µM (inactive) | 18.8 µM (inactive) | 15.2 µM (inactive) | 19.2 µM (inactive) | 15.5 µM (inactive) | 27.8 µM (inactive)
CCCCOc1ccc(S(=O)(=O)N/C(N)=N/c2ccc(Cl)cc2)cc1 | 14.7 µM (inactive) | 17.4 µM (inactive) | 15.2 µM (inactive) | 14 | 20.2 µM (inactive) | 12.4 µM (inactive) | 15.6 µM (inactive) | 14.6 µM (inactive) | 15.7 µM (inactive) | 17.2 µM (inactive) | 16.1 µM (inactive) | 14.3 µM (inactive) | 18.3 µM (inactive) | 19.1 µM (inactive) | 16.9 µM (inactive) | 15.5 µM (inactive) | 10.3 µM (inactive) |  |  | 19.9 µM (inactive)
CC1(C)C2CCC1(C)C(OC(=O)/C=C/C(=O)OC1CC3CCC1(C)C3(C)C)C2 (stereo unspecified) | 72.9 µM (inactive) | > 100 µM (inactive) | 56.9 µM (inactive) | 68.7 | > 100 µM (inactive) | 19.3 µM (inactive) | > 100 µM (inactive) |  | 47.9 µM (inactive) |  | 58.9 µM (inactive) | > 100 µM (inactive) | > 100 µM (inactive) |  | 51.4 µM (inactive) | 38.1 µM (inactive) | > 100 µM (inactive) | 16.9 µM (inactive) | 67.3 µM (inactive) | 
